Laboratory results taken from US6506772B1, “Substituted [1,2,4]triazolo[1,5a]pyridine derivatives with activity as adenosine receptor ligands” (Hoffmann-La Roche Inc., priority 2000, dated 2003).
pKi: −log10 of the molar value.

Columns and labels:
[1] = target: T1, human adenosine A2A receptor (Homo sapiens, UniProt P29274); assay: Human adenosine A2A receptor [3H]-SCH-58261 binding assay; settings: for pKi: affinity to human adenosine A2A receptor, read-out: Ki HA2A; for selectivity (A1/A2a): calculated ratio of the affinity to the HA1 receptor to the HA2a receptor
T1 construct: expressed in transfected cells; host or cells: CHO cells, Semliki Forest virus expression system; membrane preparation
T1 sequence (P29274 whole entry): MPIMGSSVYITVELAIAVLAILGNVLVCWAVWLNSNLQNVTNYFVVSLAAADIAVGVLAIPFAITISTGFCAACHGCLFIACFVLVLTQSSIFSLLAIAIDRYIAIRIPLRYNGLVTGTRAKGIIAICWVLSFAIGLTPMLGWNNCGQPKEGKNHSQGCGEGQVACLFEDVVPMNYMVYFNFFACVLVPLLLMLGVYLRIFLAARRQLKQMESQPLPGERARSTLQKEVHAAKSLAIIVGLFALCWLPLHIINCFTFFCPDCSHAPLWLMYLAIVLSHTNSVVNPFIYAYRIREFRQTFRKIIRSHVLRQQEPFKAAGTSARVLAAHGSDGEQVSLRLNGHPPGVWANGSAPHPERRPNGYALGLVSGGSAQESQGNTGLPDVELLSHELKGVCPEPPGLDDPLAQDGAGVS

HA1 adenosine receptor = target: T2, HA1 adenosine receptor (Homo sapiens, UniProt P30542); assay: Human adenosine A1 receptor affinity (Ki hA1); type: binding; settings: affinity to human adenosine A1 receptor
T2 sequence (P30542 1-326): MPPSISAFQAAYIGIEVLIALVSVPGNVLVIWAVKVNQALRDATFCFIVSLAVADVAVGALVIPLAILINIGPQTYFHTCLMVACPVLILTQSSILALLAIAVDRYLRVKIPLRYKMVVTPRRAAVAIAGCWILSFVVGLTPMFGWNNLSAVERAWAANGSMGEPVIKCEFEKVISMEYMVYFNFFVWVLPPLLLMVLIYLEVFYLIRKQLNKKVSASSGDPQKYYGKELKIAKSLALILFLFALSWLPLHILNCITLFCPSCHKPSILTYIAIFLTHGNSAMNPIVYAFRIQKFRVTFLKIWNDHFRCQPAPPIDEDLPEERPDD

SMILES | pKi [1] | selectivity (A1/A2a) [1] | pKi (HA1 adenosine receptor)
COc1cc(CNC(=O)c2cc(N)n3nc(-c4ccc(C)o4)nc3c2)cc(OC)c1OC [Example 112, 5-Amino-2-(5-methyl-furan-2-yl)-[1,2,4]triazolo[1,5-a]pyridine-7-carboxylic acid 3,4,5-trimethoxy-benzylamide] | 6.83 | 16.6 | 5.61
Cc1ccc(-c2nc3cc(C(=O)N(C)C4CCCCC4)cc(N)n3n2)s1 [Example 113, 5-Amino-2-(5-methyl-thiophen-2-yl)-[1,2,4]triazolo[1,5-a]pyridine-7-carboxylic acid cyclohexyl-methyl-amide] | 7.76 | 17.8 | 6.51
Cc1ccc(-c2nc3cc(C(=O)N4CCCCC4)cc(N)n3n2)s1 [Example 114, [5-Amino-2-(5-methyl-thiophen-2-yl)-[1,2,4]triazolo[1,5-a]pyridin-7-yl]-piperidin-1-yl-methanone] | 7.55 | 27.3 | 6.11
Cc1ccc(-c2nc3cc(C(=O)N4CCOCC4)cc(N)n3n2)s1 [Example 115, [5-Amino-2-(5-methyl-thiophen-2-yl)-[1,2,4]triazolo[1,5-a]pyridin-7-yl]-morpholin-4-yl-methanone] | 6.65 | 13.2 | 5.54
Cc1ccc(-c2nc3cc(C(=O)N(C)Cc4ccccc4)cc(N)n3n2)s1 [Example 116, 5-Amino-2-(5-methyl-thiophen-2-yl)-[1,2,4]triazolo[1,5-a]pyridine-7-carboxylic acid benzyl-methyl-amide] | 7.82 | 11.1 | 6.77
Cc1ccc(-c2nc3cc(C(=O)N(Cc4ccccc4)C(C)C)cc(N)n3n2)s1 [Example 117, 5-Amino-2-(5-methyl-thiophen-2-yl)-[1,2,4]triazolo[1,5-a]pyridine-7-carboxylic acid benzyl-isopropyl-amide] | 8.04 | 19.2 | 6.75
Nc1cc(C(=O)N2CCCC2)cc2nc(-c3ccccc3O)nn12 [Example 118, [5-Amino-2-(2-hydroxy-phenyl)-[1,2,4]triazolo[1,5-a]pyridin-7-yl]-pyrrolidin-1-yl-methanone] | 6.90 | 15.5 | 5.71
CCCCNC(=O)c1cc(N)n2nc(-c3nccs3)nc2c1 [Example 119, 5-Amino-2-thiazol-2-yl-[1,2,4]triazolo[1,5-a]pyridine-7-carboxylic acid butylamide] | 7.77 | 25.0 | 6.37
CCN(CC)C(=O)c1cc(N)n2nc(-c3nccs3)nc2c1 [Example 120, 5-Amino-2-thiazol-2-yl-[1,2,4]triazolo[1,5-a]pyridine-7-carboxylic acid diethylamide] | 7.11 | 35.4 | 5.56
CC(C)N(Cc1ccccc1)C(=O)c1cc(N)n2nc(-c3ccccc3O)nc2c1 [Example 121, 5-Amino-2-(2-hydroxy-phenyl)-[1,2,4]triazolo[1,5-a]pyridine-7-carboxylic acid benzyl-isopropyl-amide] | 7.77 | 12.0 | 6.69
CC(C)N(C(=O)c1cc(N)n2nc(-c3nccs3)nc2c1)C(C)C [Example 122, 5-Amino-2-thiazol-2-yl-[1,2,4]triazolo[1,5-a]pyridine-7-carboxylic acid diisopropylamide] | 6.50 | 10.5 | 5.48
Nc1cc(C(=O)NC2CCCCC2)cc2nc(-c3nccs3)nn12 [Example 123, 5-Amino-2-thiazol-2-yl-[1,2,4]triazolo[1,5-a]pyridine-7-carboxylic acid cyclohexylamide] | 7.36 | 16.0 | 6.16
CN(C(=O)c1cc(N)n2nc(-c3nccs3)nc2c1)C1CCCCC1 [Example 124, 5-Amino-2-thiazol-2-yl-[1,2,4]triazolo[1,5-a]pyridine-7-carboxylic acid cyclohexyl-methyl-amide] | 7.00 | 15.2 | 5.82
Nc1cc(C(=O)NC2CCc3ccccc32)cc2nc(-c3nccs3)nn12 (stereo not drawn) [Example 125, 5-Amino-2-thiazol-2-yl-[1,2,4]triazolo[1,5-a]pyridine-7-carboxylic acid indan-1-ylamide] | 7.61 | 10.5 | 6.59
CC(NC(=O)c1cc(N)n2nc(-c3nccs3)nc2c1)c1ccccc1 (stereo not drawn) [Example 126, 5-Amino-2-thiazol-2-yl-[1,2,4]triazolo[1,5-a]pyridine-7-carboxylic acid (1-phenyl-ethyl)-amide] | 7.26 | 4.3 | 6.63
CCN(CC)C(=O)c1cc(N)n2nc(-c3cccs3)nc2c1 [Example 127, 5-Amino-2-thiophen-2-yl-[1,2,4]triazolo[1,5-a]pyridine-7-carboxylic acid diethylamide] | 6.98 | 18.9 | 5.71
Nc1cc(C(=O)N2CCCCC2)cc2nc(-c3cccs3)nn12 [Example 129, (5-Amino-2-thiophen-2-yl-[1,2,4]triazolo[1,5-a]pyridin-7-yl)-piperidin-1-yl-methanone] | 7.00 | 14.5 | 5.84
COc1ccccc1CNC(=O)c1cc(N)n2nc(-c3nccs3)nc2c1 [Example 130, 5-Amino-2-thiazol-2-yl-[1,2,4]triazolo[1,5-a]pyridine-7-carboxylic acid 2-methoxy-benzylamide] | 7.82 | 8.4 | 6.89
CCCCNC(=O)c1cc(N)n2nc(-c3ccc(Br)o3)nc2c1 [Example 131, 5-Amino-2-(5-bromo-furan-2-yl)-[1,2,4]triazolo[1,5-a]pyridine-7-carboxylic acid butylamide] | 7.71 | 17.8 | 6.46
Nc1cc(C(=O)N2CCOCC2)cc2nc(-c3ccc(Br)o3)nn12 [Example 132, [5-Amino-2-(5-bromo-furan-2-yl)-[1,2,4]triazolo[1,5-a]pyridin-7-yl]-morpholin-4-yl-methanone] | 7.47 | 22.7 | 6.12
COc1cc(CNC(=O)c2cc(N)n3nc(-c4ccc(Br)o4)nc3c2)cc(OC)c1OC [Example 133, 5-Amino-2-(5-bromo-furan-2-yl)-[1,2,4]triazolo[1,5-a]pyridine-7-carboxylic acid 3,4,5-trimethoxy-benzylamide] | 6.84 | 13.3 | 5.71
Cn1cccc1-c1nc2cc(C(=O)N3CCCC3)cc(N)n2n1 [Example 134, [5-Amino-2-(1-methyl-1H-pyrrol-2-yl)-[1,2,4]triazolo[1,5-a]pyridin-7-yl]-pyrrolidin-1-yl-methanone] | 6.54 | 9.3 | 5.57
CC(C)N(Cc1ccccc1)C(=O)c1cc(N)n2nc(-c3cccn3C)nc2c1 [Example 135, 5-Amino-2-(1-methyl-1H-pyrrol-2-yl)-[1,2,4]triazolo[1,5-a]pyridine-7-carboxylic acid benzyl-isopropyl-amide] | 6.78 | 10.9 | 5.74
CC(C)N(Cc1ccccc1)C(=O)c1cc(N)n2nc(-c3ccco3)nc2c1 [Example 136, 5-Amino-2-furan-2-yl-[1,2,4]triazolo[1,5-a]pyridine-7-carboxylic acid benzyl-isopropyl-amide] | 7.92 | 18.5 | 6.65
CCCCNC(=O)c1cc(N)n2nc(-c3ccc(C)o3)nc2c1 [Example 137, 5-Amino-2-(5-methyl-furan-2-yl)-[1,2,4]triazolo[1,5-a]pyridine-7-carboxylic acid butylamide] | 7.96 | 19.8 | 6.66
Cc1ccc(-c2nc3cc(C(=O)NC4CCCCC4)cc(N)n3n2)o1 [Example 138, 5-Amino-2-(5-methyl-furan-2-yl)-[1,2,4]triazolo[1,5-a]pyridine-7-carboxylic acid cyclohexylamide] | 6.91 | 10.3 | 5.90
Cc1ccc(-c2nc3cc(C(=O)N4CCOCC4)cc(N)n3n2)o1 [Example 139, [5-Amino-2-(5-methyl-furan-2-yl)-[1,2,4]triazolo[1,5-a]pyridin-7-yl]-morpholin-4-yl-methanone] | 7.13 | 23.5 | 5.76
Cc1ccc(-c2nc3cc(C(=O)N(C)Cc4ccccc4)cc(N)n3n2)o1 [Example 140, 5-Amino-2-(5-methyl-furan-2-yl)-[1,2,4]triazolo[1,5-a]pyridine-7-carboxylic acid benzyl-methyl-amide] | 8.14 | 14.7 | 6.97
Cc1ccc(-c2nc3cc(C(=O)N(Cc4ccccc4)C(C)C)cc(N)n3n2)o1 [Example 141, 5-Amino-2-(5-methyl-furan-2-yl)-[1,2,4]triazolo[1,5-a]pyridine-7-carboxylic acid benzyl-isopropyl-amide] | 8.23 | 20.8 | 6.91
COc1ccc(CNC(=O)c2cc(N)n3nc(-c4ccc(C)o4)nc3c2)cc1OC [Example 142, 5-Amino-2-(5-methyl-furan-2-yl)-[1,2,4]triazolo[1,5-a]pyridine-7-carboxylic acid 3,4-dimethoxy-benzylamide] | 6.55 | 14.6 | 5.39
